{
  "source": "paper PMC5736559",
  "about": "“Dual blockade of the lipid kinase PIP4Ks and mitotic pathways leads to cancer-selective lethality” (Nature Communications, 2017)",
  "key": {"[1]": {"biological_target": "PIP4K2A (Homo sapiens, UniProt P48426)", "sequence (P48426 2-406)": "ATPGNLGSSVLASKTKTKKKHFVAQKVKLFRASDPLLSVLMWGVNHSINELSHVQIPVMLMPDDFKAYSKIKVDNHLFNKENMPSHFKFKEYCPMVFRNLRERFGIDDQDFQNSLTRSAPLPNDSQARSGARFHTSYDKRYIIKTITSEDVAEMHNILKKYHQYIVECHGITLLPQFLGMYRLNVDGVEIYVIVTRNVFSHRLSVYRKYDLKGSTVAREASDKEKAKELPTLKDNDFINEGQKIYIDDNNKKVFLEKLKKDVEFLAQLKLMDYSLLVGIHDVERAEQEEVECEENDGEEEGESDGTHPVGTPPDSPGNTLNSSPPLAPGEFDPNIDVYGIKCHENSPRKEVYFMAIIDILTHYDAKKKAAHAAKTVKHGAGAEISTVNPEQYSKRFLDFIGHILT", "assay": "ADP-Glo kinase assay with purified PIP4K2A and PI([…])P", "type": "biochemical"}, "[2]": {"biological_target": "T1, Ferrochelatase (Homo sapiens, UniProt P22830)", "T1 construct": "gene FECH", "T1 sequence (P22830 55-423)": "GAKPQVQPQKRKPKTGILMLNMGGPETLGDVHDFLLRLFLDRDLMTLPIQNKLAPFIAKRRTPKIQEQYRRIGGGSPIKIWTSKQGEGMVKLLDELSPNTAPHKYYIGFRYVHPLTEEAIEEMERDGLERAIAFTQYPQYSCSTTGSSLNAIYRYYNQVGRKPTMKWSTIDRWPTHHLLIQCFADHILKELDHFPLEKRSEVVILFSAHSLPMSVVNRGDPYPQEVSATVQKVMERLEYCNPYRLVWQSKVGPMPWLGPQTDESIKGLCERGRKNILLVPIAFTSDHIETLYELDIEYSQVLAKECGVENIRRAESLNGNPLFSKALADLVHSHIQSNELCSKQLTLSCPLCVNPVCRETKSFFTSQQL", "assay": "MS-CETSA thermal shift in normal BJ cell lysate, […] compound (off-target hit)", "type": "cell-based"}, "[3]": {"biological_target": "PIP4K2C (Homo sapiens, UniProt Q8TBX8)", "sequence (Q8TBX8 2-421)": "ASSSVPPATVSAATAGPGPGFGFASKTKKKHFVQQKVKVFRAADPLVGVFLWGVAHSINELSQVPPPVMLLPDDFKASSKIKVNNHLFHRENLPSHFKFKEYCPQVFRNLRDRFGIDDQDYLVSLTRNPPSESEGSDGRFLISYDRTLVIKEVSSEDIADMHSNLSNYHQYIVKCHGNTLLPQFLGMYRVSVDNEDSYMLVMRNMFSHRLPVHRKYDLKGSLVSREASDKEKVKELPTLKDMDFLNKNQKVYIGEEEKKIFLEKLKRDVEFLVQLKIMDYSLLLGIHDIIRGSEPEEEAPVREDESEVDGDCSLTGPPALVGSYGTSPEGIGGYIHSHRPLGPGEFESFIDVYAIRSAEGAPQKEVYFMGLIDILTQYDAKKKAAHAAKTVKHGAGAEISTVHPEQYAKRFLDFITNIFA", "assay": "MS-CETSA thermal shift in normal BJ cell lysate, […] compound", "type": "cell-based"}, "[4]": {"tested_on": "A549", "assay": "cells", "design": "MTT cell viability/proliferation assay, absorbance 540 minus 660 nm, GI50 by non-linear regression", "settings": "Homo sapiens, A549; cancer cells, 72 h MTT", "description": "(§1) Cells were plated in 96-well microplates on day 0, and a131 was added to each well on day 1 at a range of different concentrations (from 0.1 to 40 μM) in triplicate. After 3 days of culture, the number of viable cells was determined using MTT cell proliferation assays by adding thiazolyl blue tetrazolium bromide (MTT reagent, Invitrogen) at a concentration of 0.5 mg/ml to each well and incubating for 4 h at 37 °C. The medium was then removed, and the blue dye remaining in each well was dissolved in DMSO by mixing with a microplate mixer. The absorbance of each well was measured at 540 and 660 nm using a microplate reader (Benchmark plus, Bio-Rad). Optical density (OD) values were calculated by subtracting the absorbance at 660 nm from the absorbance at 540 nm. Mean OD values from control cells containing only DMSO-treated wells were set as 100% viable. […] Mean values with ± standard deviation (S.D.) are shown (n = 3). c, d Normal and transformed BJ cells were treated with a131 at 2.5 μM for 48 h. c FACS analysis using BrdU and PI double staining of the indicated cells. Percentages of BrdU-positive (S) population indicating cell cycle arrest and subG1 (<2N) population indicating cell death are shown. Representative FACS analysis shown (n = 3). d Immunoblot analysis of cleaved PARP and caspase-3 (Cas-3) indicating a131-induced apoptosis in transformed BJ cells (lanes 5, 6), but not normal counterparts (lanes 2, 3). Representative immunoblots shown (n = 3). e MTT assay of human normal and cancer cell lines treated with a131 for 72 h (n = 3). Mean concentration values for a131 to achieve 50% growth inhibition (GI50) in each cell line are plotted with ± S.D. f FACS analysis of a series of engineered BJ-derived fibroblasts treated with a131 at 5 µM for 48 h. Mean values of subG1 (<2N) population ± S.D. are shown (n > 3). g, h Normal and transformed BJ cells stably expressing GFP-histone H2B were treated with a131 at 2.5 μM for 32 h prior to fixation. g Immunofluorescence analysis with representative images (n = 3). h Quantification of cells (n > 100 per condition) with the indicated centrosome numbers. Mean values ± S.D. are shown (n = 3). i Mice bearing established tumor xenografts were treated orally (PO) or intraperitoneally (IP) twice daily with the indicated doses of a131 or its derivative b5. Tumor volumes were calculated periodically as indicated. Paclitaxel (PTX) was administered intravenously for twice every 4 days. Mean tumor volumes ± S.D. from six mice are shown. Two-way ANOVA was performed to determine statistical significance compared to vehicle control. j, k TUNEL staining (j) or immu"}, "[5]": {"tested_on": "AGS", "assay": "cells", "design": "MTT cell viability/proliferation assay, absorbance 540 minus 660 nm, GI50 by non-linear regression", "settings": "Homo sapiens, AGS; cancer cells, 72 h MTT", "description": "as §1"}, "[6]": {"tested_on": "HCT116", "assay": "cells", "design": "MTT cell viability/proliferation assay, absorbance 540 minus 660 nm, GI50 by non-linear regression", "settings": "Homo sapiens, HCT-116; cancer cells, 72 h MTT", "description": "as §1"}, "[7]": {"tested_on": "HCT15", "assay": "cells", "design": "MTT cell viability/proliferation assay, absorbance 540 minus 660 nm, GI50 by non-linear regression", "settings": "Homo sapiens, HCT-15; cancer cells, 72 h MTT", "description": "as §1"}, "[8]": {"tested_on": "HGC27", "assay": "cells", "design": "MTT cell viability/proliferation assay, absorbance 540 minus 660 nm, GI50 by non-linear regression", "settings": "Homo sapiens, HGC-27; cancer cells, 72 h MTT", "description": "as §1"}, "[9]": {"tested_on": "HT29", "assay": "cells", "design": "MTT cell viability/proliferation assay, absorbance 540 minus 660 nm, GI50 by non-linear regression", "settings": "Homo sapiens, HT-29; cancer cells, 72 h MTT", "description": "as §1"}, "[10]": {"tested_on": "HeLa", "assay": "cells", "design": "MTT cell viability/proliferation assay, absorbance 540 minus 660 nm, GI50 by non-linear regression", "settings": "Homo sapiens, HeLa; cancer cells, 72 h MTT", "description": "as §1"}, "[11]": {"tested_on": "Huh7", "assay": "cells", "design": "MTT cell viability/proliferation assay, absorbance 540 minus 660 nm, GI50 by non-linear regression", "settings": "Homo sapiens, Huh-7; cancer cells, 72 h MTT", "description": "as §1"}, "[12]": {"tested_on": "IM95", "assay": "cells", "design": "MTT cell viability/proliferation assay, absorbance 540 minus 660 nm, GI50 by non-linear regression", "settings": "Homo sapiens, IM95; cancer cells, 72 h MTT", "description": "as §1"}, "[13]": {"tested_on": "MCF7", "assay": "cells", "design": "MTT cell viability/proliferation assay, absorbance 540 minus 660 nm, GI50 by non-linear regression", "settings": "Homo sapiens, MCF7; cancer cells, 72 h MTT", "description": "as §1"}, "[14]": {"tested_on": "MDA-MB-231", "assay": "cells", "design": "MTT cell viability/proliferation assay, absorbance 540 minus 660 nm, GI50 by non-linear regression", "settings": "Homo sapiens, MDA-MB-231; cancer cells, 72 h MTT", "description": "as §1"}, "[15]": {"tested_on": "NCC24", "assay": "cells", "design": "MTT cell viability/proliferation assay, absorbance 540 minus 660 nm, GI50 by non-linear regression", "settings": "cancer cells, 72 h MTT", "description": "as §1"}, "[16]": {"tested_on": "NCC59", "assay": "cells", "design": "MTT cell viability/proliferation assay, absorbance 540 minus 660 nm, GI50 by non-linear regression", "settings": "cancer cells, 72 h MTT", "description": "as §1"}, "[17]": {"tested_on": "NUGC3", "assay": "cells", "design": "MTT cell viability/proliferation assay, absorbance 540 minus 660 nm, GI50 by non-linear regression", "settings": "Homo sapiens, NUGC-3; cancer cells, 72 h MTT", "description": "as §1"}, "[18]": {"tested_on": "SNU-16", "assay": "cells", "design": "MTT cell viability/proliferation assay, absorbance 540 minus 660 nm, GI50 by non-linear regression", "settings": "Homo sapiens, SNU-16; cancer cells, 72 h MTT", "description": "as §1"}, "[19]": {"tested_on": "SNU1750", "assay": "cells", "design": "MTT cell viability/proliferation assay, absorbance 540 minus 660 nm, GI50 by non-linear regression", "settings": "cancer cells, 72 h MTT", "description": "as §1"}, "[20]": {"tested_on": "SNU1", "assay": "cells", "design": "MTT cell viability/proliferation assay, absorbance 540 minus 660 nm, GI50 by non-linear regression", "settings": "Homo sapiens, SNU1; cancer cells, 72 h MTT", "description": "as §1"}, "[21]": {"tested_on": "SNU449", "assay": "cells", "design": "MTT cell viability/proliferation assay, absorbance 540 minus 660 nm, GI50 by non-linear regression", "settings": "Homo sapiens, SNU-449; cancer cells, 72 h MTT", "description": "as §1"}, "[22]": {"tested_on": "SNU620", "assay": "cells", "design": "MTT cell viability/proliferation assay, absorbance 540 minus 660 nm, GI50 by non-linear regression", "settings": "SNU620; cancer cells, 72 h MTT", "description": "as §1"}},
  "data": [
    {"smiles": "COc1cc(/C=C(\\C#N)C(=O)c2ccc(O)c(O)c2)cc(I)c1O", "note": "[I-OMe-AG-538]", "values": [
      {"measurement": "IC50", "setting": "[1]", "result": 2100, "unit": "nM"}
    ]},
    {"smiles": "N#C/C(=C\\c1cccc2cnccc12)c1c[nH]c2ccccc12", "note": "[a131]", "values": [
      {"measurement": "MS-CETSA thermal shift in normal BJ cell lysate, 100 μM compound (off-target hit)", "setting": "[2]", "result": "Ferrochelatase in a131 and coproporphyrinogen-III oxidase in a166 were identified as prominent hits"},
      {"measurement": "MS-CETSA thermal shift in normal BJ cell lysate, 100 μM compound", "setting": "[3]", "result": "two out of the three family members (PIP4K2A and 2C) in a131"},
      {"measurement": "GI50", "setting": "[4]", "result": 1970, "unit": "nM"},
      {"measurement": "GI50", "setting": "[5]", "result": 1130, "unit": "nM"},
      {"measurement": "GI50", "setting": "[6]", "result": 1840, "unit": "nM"},
      {"measurement": "GI50", "setting": "[7]", "result": 545, "unit": "nM"},
      {"measurement": "GI50", "setting": "[8]", "result": 1170, "unit": "nM"},
      {"measurement": "GI50", "setting": "[9]", "result": 915, "unit": "nM"},
      {"measurement": "GI50", "setting": "[10]", "result": 1440, "unit": "nM"},
      {"measurement": "GI50", "setting": "[11]", "result": 1180, "unit": "nM"},
      {"measurement": "GI50", "setting": "[12]", "result": 1040, "unit": "nM"},
      {"measurement": "GI50", "setting": "[13]", "result": 1240, "unit": "nM"},
      {"measurement": "GI50", "setting": "[14]", "result": 1140, "unit": "nM"},
      {"measurement": "GI50", "setting": "[15]", "result": 1230, "unit": "nM"},
      {"measurement": "GI50", "setting": "[16]", "result": 944, "unit": "nM"},
      {"measurement": "GI50", "setting": "[17]", "result": 1040, "unit": "nM"},
      {"measurement": "GI50", "setting": "[18]", "result": 982, "unit": "nM"},
      {"measurement": "GI50", "setting": "[19]", "result": 747, "unit": "nM"},
      {"measurement": "GI50", "setting": "[20]", "result": 919, "unit": "nM"},
      {"measurement": "GI50", "setting": "[21]", "result": 2270, "unit": "nM"},
      {"measurement": "GI50", "setting": "[22]", "result": 982, "unit": "nM"}
    ]}
  ]
}
